Experimental data published in ChEMBL document CHEMBL1914418, “Biochemical and pharmacological profiling of the pro-survival protein Bcl-xL” (Bioorg Med Chem Lett, 2011).

Tests used:
[1] = target: Induced myeloid leukemia cell differentiation protein Mcl-1 homolog (Mus musculus, UniProt P97287); assay: Binding affinity for GST-tagged mouse MCL1 expressed in Escherichia coli BL21 cells
Bcl-2-related protein A1 = target: T1, Bcl-2-related protein A1 (Homo sapiens, UniProt Q16548); assay: Binding affinity for GST-tagged human BCL2A1 expressed in Escherichia coli BL21 cells
T1 sequence (Q16548 whole entry): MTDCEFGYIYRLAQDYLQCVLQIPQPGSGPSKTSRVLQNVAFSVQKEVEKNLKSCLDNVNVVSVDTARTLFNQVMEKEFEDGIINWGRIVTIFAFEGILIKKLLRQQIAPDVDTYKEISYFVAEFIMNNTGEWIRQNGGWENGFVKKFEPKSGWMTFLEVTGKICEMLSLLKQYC

Bcl-2-like protein 1 [2] = target: Bcl-2-like protein 1 (Homo sapiens, UniProt Q07817); assay: Displacement of BODIPY-Bak conjugated peptide from GST-tagged human Wild type Bcl-2-like protein 1 expressed in Escherichia coli BL21 cells at 10 uM after 3 hrs by fluorescence polarization competition assay
Sequence of Bcl-2-like protein 1 (Homo sapiens, UniProt Q07817) (Q07817 whole entry): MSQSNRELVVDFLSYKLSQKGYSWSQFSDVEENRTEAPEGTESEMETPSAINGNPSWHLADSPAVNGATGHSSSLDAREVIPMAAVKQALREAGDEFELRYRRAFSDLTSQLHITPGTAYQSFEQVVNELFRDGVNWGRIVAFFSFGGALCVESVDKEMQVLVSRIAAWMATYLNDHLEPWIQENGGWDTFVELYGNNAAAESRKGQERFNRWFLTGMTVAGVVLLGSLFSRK

Bcl-2-like protein 1 [3] = target: Bcl-2-like protein 1 (Homo sapiens, UniProt Q07817, A93V); assay: Displacement of BODIPY-Bak conjugated peptide from GST-tagged human Bcl-2-like protein 1 A93V mutant expressed in Escherichia coli BL21 cells at 10 uM after 3 hrs by fluorescence polarization competition assay
Sequence of Bcl-2-like protein 1 (Homo sapiens, UniProt Q07817, A93V) (Q07817 whole entry A93V): as the sequence (Q07817 whole entry) above, with A93V counted along it

Bcl-2-like protein 1 [4] = target: Bcl-2-like protein 1 (Homo sapiens, UniProt Q07817, E96G); assay: Displacement of BODIPY-Bak conjugated peptide from GST-tagged human Bcl-2-like protein 1 E96G mutant expressed in Escherichia coli BL21 cells at 10 uM after 3 hrs by fluorescence polarization competition assay
Sequence of Bcl-2-like protein 1 (Homo sapiens, UniProt Q07817, E96G) (Q07817 whole entry E96G): as the sequence (Q07817 whole entry) above, with E96G counted along it

Bcl-2-like protein 1 [5] = target: Bcl-2-like protein 1 (Homo sapiens, UniProt Q07817, F97V); assay: Displacement of BODIPY-Bak conjugated peptide from GST-tagged human Bcl-2-like protein 1 F97V mutant expressed in Escherichia coli BL21 cells at 10 uM after 3 hrs by fluorescence polarization competition assay
Sequence of Bcl-2-like protein 1 (Homo sapiens, UniProt Q07817, F97V) (Q07817 whole entry F97V): as the sequence (Q07817 whole entry) above, with F97V counted along it

Bcl-2-like protein 1 [6] = target: Bcl-2-like protein 1 (Homo sapiens, UniProt Q07817, Y101H); assay: Displacement of BODIPY-Bak conjugated peptide from GST-tagged human Bcl-2-like protein 1 Y101H mutant expressed in Escherichia coli BL21 cells at 10 uM after 3 hrs by fluorescence polarization competition assay
Sequence of Bcl-2-like protein 1 (Homo sapiens, UniProt Q07817, Y101H) (Q07817 whole entry Y101H): as the sequence (Q07817 whole entry) above, with Y101H counted along it

Bcl-2-like protein 1 [7] = target: Bcl-2-like protein 1 (Homo sapiens, UniProt Q07817, E129H); assay: Displacement of BODIPY-Bak conjugated peptide from GST-tagged human Bcl-2-like protein 1 E129H mutant expressed in Escherichia coli BL21 cells at 10 uM after 3 hrs by fluorescence polarization competition assay
Sequence of Bcl-2-like protein 1 (Homo sapiens, UniProt Q07817, E129H) (Q07817 whole entry E129H): as the sequence (Q07817 whole entry) above, with E129H counted along it

Bcl-2-like protein 1 [8] = target: Bcl-2-like protein 1 (Homo sapiens, UniProt Q07817, L130A); assay: Displacement of BODIPY-Bak conjugated peptide from GST-tagged human Bcl-2-like protein 1 L130A mutant expressed in Escherichia coli BL21 cells at 10 uM after 3 hrs by fluorescence polarization competition assay
Sequence of Bcl-2-like protein 1 (Homo sapiens, UniProt Q07817, L130A) (Q07817 whole entry L130A): as the sequence (Q07817 whole entry) above, with L130A counted along it

Bcl-2-like protein 1 [9] = target: Bcl-2-like protein 1 (Homo sapiens, UniProt Q07817, L130G); assay: Displacement of BODIPY-Bak conjugated peptide from GST-tagged human Bcl-2-like protein 1 L130G mutant expressed in Escherichia coli BL21 cells at 10 uM after 3 hrs by fluorescence polarization competition assay
Sequence of Bcl-2-like protein 1 (Homo sapiens, UniProt Q07817, L130G) (Q07817 whole entry L130G): as the sequence (Q07817 whole entry) above, with L130G counted along it

[10] = Displacement of BODIPY-Bak conjugated peptide from GST-tagged human Bcl-2-like protein 1 delta136T mutant expressed in Escherichia coli BL21 cells at 10 uM after 3 hrs by fluorescence polarization competition assay
Bcl-2-like protein 1 [11] = target: Bcl-2-like protein 1 (Homo sapiens, UniProt Q07817, V141A); assay: Displacement of BODIPY-Bak conjugated peptide from GST-tagged human Bcl-2-like protein 1 V141A mutant expressed in Escherichia coli BL21 cells at 10 uM after 3 hrs by fluorescence polarization competition assay
Sequence of Bcl-2-like protein 1 (Homo sapiens, UniProt Q07817, V141A) (Q07817 whole entry V141A): as the sequence (Q07817 whole entry) above, with V141A counted along it

Bcl-2-like protein 1 [12] = target: Bcl-2-like protein 1 (Homo sapiens, UniProt Q07817, A142G); assay: Displacement of BODIPY-Bak conjugated peptide from GST-tagged human Bcl-2-like protein 1 A142G mutant expressed in Escherichia coli BL21 cells at 10 uM after 3 hrs by fluorescence polarization competition assay
Sequence of Bcl-2-like protein 1 (Homo sapiens, UniProt Q07817, A142G) (Q07817 whole entry A142G): as the sequence (Q07817 whole entry) above, with A142G counted along it

Bcl-2-like protein 1 [13] = target: Bcl-2-like protein 1 (Homo sapiens, UniProt Q07817, A142T); assay: Displacement of BODIPY-Bak conjugated peptide from GST-tagged human Bcl-2-like protein 1 A142T mutant expressed in Escherichia coli BL21 cells at 10 uM after 3 hrs by fluorescence polarization competition assay
Sequence of Bcl-2-like protein 1 (Homo sapiens, UniProt Q07817, A142T) (Q07817 whole entry A142T): as the sequence (Q07817 whole entry) above, with A142T counted along it

Bcl-2-like protein 1 [14] = target: Bcl-2-like protein 1 (Homo sapiens, UniProt Q07817, Y195F); assay: Displacement of BODIPY-Bak conjugated peptide from GST-tagged human Bcl-2-like protein 1 Y195F mutant expressed in Escherichia coli BL21 cells at 10 uM after 3 hrs by fluorescence polarization competition assay
Sequence of Bcl-2-like protein 1 (Homo sapiens, UniProt Q07817, Y195F) (Q07817 whole entry Y195F): as the sequence (Q07817 whole entry) above, with Y195F counted along it

Bcl-2-like protein 1 [15] = target: Bcl-2-like protein 1 (Homo sapiens, UniProt Q07817, G196A); assay: Displacement of BODIPY-Bak conjugated peptide from GST-tagged human Bcl-2-like protein 1 G196A mutant expressed in Escherichia coli BL21 cells at 10 uM after 3 hrs by fluorescence polarization competition assay
Sequence of Bcl-2-like protein 1 (Homo sapiens, UniProt Q07817, G196A) (Q07817 whole entry G196A): as the sequence (Q07817 whole entry) above, with G196A counted along it

[16] = Displacement of BODIPY-Bak conjugated peptide from GST-tagged human Bcl-2-like protein 1 A142Gdelta136T mutant expressed in Escherichia coli BL21 cells at 10 uM after 3 hrs by fluorescence polarization competition assay

Sequence of Induced myeloid leukemia cell differentiation protein Mcl-1 homolog (P97287 whole entry): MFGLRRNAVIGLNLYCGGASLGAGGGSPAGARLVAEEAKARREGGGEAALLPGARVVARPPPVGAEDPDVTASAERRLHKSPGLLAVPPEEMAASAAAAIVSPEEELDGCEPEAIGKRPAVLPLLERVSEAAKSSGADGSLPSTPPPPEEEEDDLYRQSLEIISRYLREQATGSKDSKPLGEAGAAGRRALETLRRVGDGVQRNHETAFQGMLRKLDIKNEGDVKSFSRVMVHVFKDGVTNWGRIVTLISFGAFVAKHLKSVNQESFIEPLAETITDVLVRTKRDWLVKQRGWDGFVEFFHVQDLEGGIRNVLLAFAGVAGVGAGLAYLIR

**Q.** With `CN(C)CC[C@H](CSc1ccccc1)Nc1ccc(S(=O)(=O)NC(=O)c2ccc(N3CCC(C)(C)CC3)cc2)cc1[N+](=O)[O-]` as the molecule, how does the Kd [1] read?
**A.** > 1000 nM

**Q.** What about the Kd (Bcl-2-related protein A1) of the same molecule?
**A.** > 1000 nM

**Q.** And the Ki (Bcl-2-like protein 1 [2])?
**A.** 6.3 nM

**Q.** What about the Ki (Bcl-2-like protein 1 [3]) of the same molecule?
**A.** < 1 nM

**Q.** And the Ki (Bcl-2-like protein 1 [4])?
**A.** 24 nM

**Q.** What about the Ki (Bcl-2-like protein 1 [5]) of the same molecule?
**A.** 82 nM

**Q.** And the Ki (Bcl-2-like protein 1 [6])?
**A.** 450 nM

**Q.** And the Ki (Bcl-2-like protein 1 [7])?
**A.** 34 nM

**Q.** And the Ki (Bcl-2-like protein 1 [8])?
**A.** 47 nM

**Q.** What about the Ki (Bcl-2-like protein 1 [9]) of the same molecule?
**A.** 86 nM

**Q.** And the Ki [10]?
**A.** 34 nM

**Q.** What about the Ki (Bcl-2-like protein 1 [11]) of the same molecule?
**A.** 390 nM

**Q.** What about the Ki (Bcl-2-like protein 1 [12]) of the same molecule?
**A.** 290 nM

**Q.** And the Ki (Bcl-2-like protein 1 [13])?
**A.** 720 nM

**Q.** What about the Ki (Bcl-2-like protein 1 [14]) of the same molecule?
**A.** 51 nM

**Q.** And the Ki (Bcl-2-like protein 1 [15])?
**A.** 41 nM

**Q.** What about the Ki [16] of the same molecule?
**A.** 45 nM
